Laboratory results: patent US8993574B2, “Pyrrole antifungal agents” (F2G Ltd, priority 2008, dated 2015)
In brackets after ≈: the same amount, converted by molar mass.

Experiments:
Format in all cases: cell-based
Aspergillus flavus [1] = assay: MIC, YAG medium; details: 24 h at 35° C, MIC banded into grades; for MIC: Aspergillus flavus, 24 h, read-out: MIC grade, A. flavus
How it was run: (§1)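 Spores harvested from 5-day Sabouraud agar cultures were inoculated at 1−2×10^4 cfu/mL into YAG medium (1% glucose, 1% ammonium chloride, 0.5% yeast extract) over doubling drug dilutions spanning 50-0.05 mg/L, or 0.5-0.0005 mg/L on repeat. After 24 h at 35° C, OD485 was read. MIC is the lowest concentration inhibiting growth >70% versus drug-free control, in mg/L.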

[2] = system: Aspergillus fumigatus AF210; assay: MIC, YAG medium; details: 24 h at 35° C, MIC banded into grades; for MIC: Aspergillus fumigatus, read-out: MIC grade, A. fumigatus 210
How it was run: as §1

[3] = system: Aspergillus fumigatus AF293; assay: MIC, YAG medium; details: 24 h at 35° C, MIC banded into grades; for MIC: Aspergillus fumigatus, read-out: MIC grade, A. fumigatus
How it was run: as §1

Aspergillus niger [4] = assay: MIC, YAG medium; details: 24 h at 35° C, MIC banded into grades; for MIC: Aspergillus niger, read-out: MIC grade, A. niger
How it was run: as §1

Aspergillus terreus AT49 [5] = assay: MIC, YAG medium; details: 24 h at 35° C, MIC banded into grades; for MIC: Aspergillus terreus, read-out: MIC grade, A. terreus 49
How it was run: as §1

Aspergillus terreus AT4 [6] = assay: MIC, YAG medium; details: 24 h at 35° C, MIC banded into grades; for MIC: Aspergillus terreus, read-out: MIC grade, A. terreus
How it was run: as §1

Aspergillus flavus [7] = assay: MIC, RPMI medium; details: MIC banded into grades; for MIC: Aspergillus flavus, read-out: MIC grade, A. flavus
How it was run: (§2)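 Broth microdilution in RPMI with 2% glucose, 0.135 M MOPS pH 7.0; compounds as doubling dilutions, 50-0.05 mg/L, inoculum 1−2×10^4 cfu/mL. Incubated 24-48 h at 35° C; growth by OD 485 nm. MIC is lowest concentration giving >80% growth inhibition versus drug-free control.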

[8] = system: Aspergillus fumigatus AF210; assay: MIC, RPMI medium; details: for MIC grade, A. fumigatus 210: MIC banded into grades; for MIC: Aspergillus fumigatus, AF210, MIC banded into grades, read-out: MIC grade, A. fumigatus 210
How it was run: as §2

[9] = system: Aspergillus fumigatus AF293; assay: MIC, RPMI medium; details: for MIC grade, A. fumigatus: MIC banded into grades; for MIC: Aspergillus fumigatus, AF293, MIC banded into grades, read-out: MIC grade, A. fumigatus
How it was run: as §2

Aspergillus niger [10] = assay: MIC, RPMI medium; details: MIC banded into grades; for MIC: Aspergillus niger, read-out: MIC grade, A. niger
How it was run: as §2

Aspergillus terreus AT49 [11] = assay: MIC, RPMI medium; details: for MIC grade, A. terreus 49: MIC banded into grades; for MIC: Aspergillus terreus, AT49, MIC banded into grades, read-out: MIC grade, A. terreus 49
How it was run: as §2

Aspergillus terreus AT4 [12] = assay: MIC, RPMI medium; details: for MIC grade, A. terreus: MIC banded into grades; for MIC: Aspergillus terreus, AT4, MIC banded into grades, read-out: MIC grade, A. terreus
How it was run: as §2

Candida albicans = assay: MIC, RPMI medium; details: 24-48 h at 35° C., >80% growth inhibition, banded into grades
How it was run: as §2

Candida glabrata = assay: MIC, RPMI medium; details: 24-48 h at 35° C., >80% growth inhibition, banded into grades
How it was run: as §2

Candida krusei = assay: MIC, RPMI medium; details: 24-48 h at 35° C., >80% growth inhibition, banded into grades
How it was run: as §2

Candida parapsilosis = assay: MIC, RPMI medium; details: 24-48 h at 35° C., >80% growth inhibition, banded into grades
How it was run: as §2

Candida tropicalis = assay: MIC, RPMI medium; details: 24-48 h at 35° C., >80% growth inhibition, banded into grades
How it was run: as §2

SMILES	MIC grade, A. flavus (Aspergillus flavus [1])	MIC grade, A. fumigatus 210 [2]	MIC grade, A. fumigatus [3]	MIC grade, A. niger (Aspergillus niger [4])	MIC grade, A. terreus 49 (Aspergillus terreus AT49 [5])	MIC grade, A. terreus (Aspergillus terreus AT4 [6])	MIC grade, A. flavus (Aspergillus flavus [7])	MIC grade, A. fumigatus 210 [8]	MIC grade, A. fumigatus [9]	MIC grade, A. niger (Aspergillus niger [10])	MIC grade, A. terreus 49 (Aspergillus terreus AT49 [11])	MIC grade, A. terreus (Aspergillus terreus AT4 [12])	Candida MIC, C. albicans (Candida albicans)	Candida MIC, C. glabrata (Candida glabrata)	Candida MIC, C. krusei (Candida krusei)	Candida MIC, C. parapsilosis (Candida parapsilosis)	Candida MIC, C. tropicalis (Candida tropicalis)	MIC (Aspergillus flavus [1])	MIC [2]	MIC [3]	other results
CCOC(=O)Cn1ccc(-c2ccccc2)c1C(=O)C(=O)Nc1ccc(N2CCN(c3cc(C)cc(C)n3)CC2)cc1 [Example 73, (2-{4-[4-(4,6-Dimethyl-pyridin-2-yl)-piperazin-1-yl]-phenylaminooxalyl}-3-phenyl-pyrrol-1-yl)-acetic acid ethyl ester]	1 (a grade of 1 represents an MIC of greater than 10 mg/L)	3 (A grade of 3 represents an MIC of less than 1 mg/L)	3 (A grade of 3 represents an MIC of less than 1 mg/L)	3 (A grade of 3 represents an MIC of less than 1 mg/L)	2 (A grade of 2 represents an MIC of from 1 to 10 mg/L)	1 (a grade of 1 represents an MIC of greater than 10 mg/L)	1 (a grade of 1 represents an MIC of greater than 10 mg/L)	3 (A grade of 3 represents an MIC of less than 1 mg/L)	3 (A grade of 3 represents an MIC of less than 1 mg/L)	3 (A grade of 3 represents an MIC of less than 1 mg/L)	1 (a grade of 1 represents an MIC of greater than 10 mg/L)	1 (a grade of 1 represents an MIC of greater than 10 mg/L)	2 (A grade of 2 represents an MIC of from 1 to 10 mg/L)	3 (A grade of 3 represents an MIC of less than 1 mg/L)	2 (A grade of 2 represents an MIC of from 1 to 10 mg/L)	2 (A grade of 2 represents an MIC of from 1 to 10 mg/L)	3 (A grade of 3 represents an MIC of less than 1 mg/L)	–	–	–	–
COCCn1ccc(C2CCC2)c1C(=O)C(=O)Nc1ccc(N2CCN(c3cc(C)cc(C)n3)CC2)cc1 [Example 104, 2-[3-Cyclobutyl-1-(2-methoxy-ethyl)-1H-pyrrol-2-yl]-N-{4-[4-(4,6-dimethyl-pyridin-2-yl)-piperizin-1-yl]-phenyl}-2-oxo-acetamide]	1 (a grade of 1 represents an MIC of greater than 10 mg/L)	2 (A grade of 2 represents an MIC of from 1 to 10 mg/L)	2 (A grade of 2 represents an MIC of from 1 to 10 mg/L)	1 (a grade of 1 represents an MIC of greater than 10 mg/L)	2 (A grade of 2 represents an MIC of from 1 to 10 mg/L)	2 (A grade of 2 represents an MIC of from 1 to 10 mg/L)	1 (a grade of 1 represents an MIC of greater than 10 mg/L)	1 (a grade of 1 represents an MIC of greater than 10 mg/L)	1 (a grade of 1 represents an MIC of greater than 10 mg/L)	1 (a grade of 1 represents an MIC of greater than 10 mg/L)	1 (a grade of 1 represents an MIC of greater than 10 mg/L)	1 (a grade of 1 represents an MIC of greater than 10 mg/L)	2 (A grade of 2 represents an MIC of from 1 to 10 mg/L)	3 (A grade of 3 represents an MIC of less than 1 mg/L)	2 (A grade of 2 represents an MIC of from 1 to 10 mg/L)	3 (A grade of 3 represents an MIC of less than 1 mg/L)	3 (A grade of 3 represents an MIC of less than 1 mg/L)	–	–	–	–
COCCn1ccc(-c2ccccc2)c1C(=O)C(=O)Nc1ccc(N2CCN(c3cc(C)cc(C)n3)CC2)cc1 [Example 47, N-{4-[4-(4,6-Dimethyl-pyridin-2-yl)-piperazin-1-yl]-phenyl}-2-[1-(2-methoxy-ethyl)-3-phenyl-1H-pyrrol-2-yl]-2-oxo-acetamide]	–	–	–	–	–	–	–	–	–	–	–	–	–	–	–	–	–	< 1 µg/mL	< 1 µg/mL	< 1 µg/mL	MIC (Aspergillus niger [4]): 1 to 10 µg/mL (≈ 1.86 to 18.6 µM); MIC (Aspergillus terreus AT49 [5]): < 1 µg/mL; MIC (Aspergillus terreus AT4 [6]): 1 to 10 µg/mL (≈ 1.86 to 18.6 µM); MIC (Aspergillus flavus [7]): 1 to 10 µg/mL (≈ 1.86 to 18.6 µM); MIC [8]: 1 to 10 µg/mL (≈ 1.86 to 18.6 µM); MIC [9]: 1 to 10 µg/mL (≈ 1.86 to 18.6 µM); MIC (Aspergillus niger [10]): 1 to 10 µg/mL (≈ 1.86 to 18.6 µM); MIC (Aspergillus terreus AT49 [11]): 1 to 10 µg/mL (≈ 1.86 to 18.6 µM); MIC (Aspergillus terreus AT4 [12]): 1 to 10 µg/mL (≈ 1.86 to 18.6 µM); MIC (Candida albicans; Candida albicans): 1 to 10 µg/mL (≈ 1.86 to 18.6 µM); MIC (Candida glabrata; Nakaseomyces glabratus): < 1 µg/mL; MIC (Candida krusei; Pichia kudriavzevii): 1 to 10 µg/mL (≈ 1.86 to 18.6 µM); MIC (Candida parapsilosis; Lodderomyces parapsilosis): 1 to 10 µg/mL (≈ 1.86 to 18.6 µM); MIC (Candida tropicalis; Candida tropicalis): 1 to 10 µg/mL (≈ 1.86 to 18.6 µM)
COC(=O)Cn1c(C)cc(-c2ccccc2)c1C(=O)C(=O)Nc1ccc(N2CCN(c3cc(C)cc(C)n3)CC2)cc1F [Example 111, (2-{4-[4-(4,6-Dimethyl-pyridin-2-yl)-piperazin-1-yl]-2-fluoro-phenylaminooxalyl}-5-methyl-3-phenyl-pyrrol-1-yl)-acetic acid methyl ester]	2 (A grade of 2 represents an MIC of from 1 to 10 mg/L)	3 (A grade of 3 represents an MIC of less than 1 mg/L)	3 (A grade of 3 represents an MIC of less than 1 mg/L)	3 (A grade of 3 represents an MIC of less than 1 mg/L)	3 (A grade of 3 represents an MIC of less than 1 mg/L)	3 (A grade of 3 represents an MIC of less than 1 mg/L)	2 (A grade of 2 represents an MIC of from 1 to 10 mg/L)	3 (A grade of 3 represents an MIC of less than 1 mg/L)	3 (A grade of 3 represents an MIC of less than 1 mg/L)	3 (A grade of 3 represents an MIC of less than 1 mg/L)	2 (A grade of 2 represents an MIC of from 1 to 10 mg/L)	3 (A grade of 3 represents an MIC of less than 1 mg/L)	–	–	–	–	–	–	–	–	–
Cc1cc(C)nc(N2CCN(c3ccc(NC(=O)C(=O)c4cc(-c5ccccc5)cn4C)cc3)CC2)c1 [Example 46, N-{4-[4-(4,6-Dimethyl-pyridin-2-yl)-piperazin-1-yl]-phenyl}-2-(1-methyl-4-phenyl-1H-pyrrol-2-yl)-2-oxo-acetamide]	–	–	–	–	–	–	–	–	–	–	–	–	–	–	–	–	–	< 1 µg/mL	< 1 µg/mL	1 to 10 µg/mL (≈ 2.03 to 20.3 µM)	MIC (Aspergillus niger [4]): > 10 µg/mL; MIC (Aspergillus terreus AT49 [5]): < 1 µg/mL; MIC (Aspergillus terreus AT4 [6]): > 10 µg/mL; MIC (Aspergillus flavus [7]): > 10 µg/mL; MIC [8]: > 10 µg/mL; MIC [9]: > 10 µg/mL; MIC (Aspergillus niger [10]): > 10 µg/mL; MIC (Aspergillus terreus AT49 [11]): 1 to 10 µg/mL (≈ 2.03 to 20.3 µM); MIC (Aspergillus terreus AT4 [12]): 1 to 10 µg/mL (≈ 2.03 to 20.3 µM)
